This test addresses T1, retinoid X receptor α (RXRα) (Homo sapiens, UniProt P19793).
T1 sequence (P19793 223-462): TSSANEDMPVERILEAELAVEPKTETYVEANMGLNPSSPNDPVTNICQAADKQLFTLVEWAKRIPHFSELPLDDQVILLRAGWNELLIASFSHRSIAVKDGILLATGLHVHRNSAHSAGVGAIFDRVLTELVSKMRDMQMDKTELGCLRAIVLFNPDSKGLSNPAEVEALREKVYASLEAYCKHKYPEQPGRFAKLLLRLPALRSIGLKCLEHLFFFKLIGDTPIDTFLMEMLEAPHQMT
Type of test: binding.

Usually IC50 stands for the point on the concentration scale where inhibition reaches its midpoint. A high value points to lower potency. Consider `C[C@@H](C(=O)O)c1ccc(-c2ccccc2)c(F)c1` [R-Flur, (R)-flurbiprofen], for which the IC50 was ~75 µM.
